Results taken from patent US7378080B2, “Methods for identifying compounds for motion sickness, vertigo and other disorders related to balance and the perception of gravity” (Neurosciences Research Foundation, Inc., priority 1999, dated 2008).

Test system: Canton-S flies
Test: Geotaxis maze assay of Drosophila
Format: in vivo, Drosophila melanogaster
Protocol: These strains and a standard laboratory wild-type strain (Canton-S, obtained from the Bloomington Drosophila Stock Center, Indiana University at Bloomington) were then tested in a geotaxis maze constructed according to the design of Hirsch (J. Comp. Physiol. Psychol. 52:304-308 (1959)) as modified by McMillan and McGuire (Behav. Genet. 22:557-573 (1992)), shown in FIG. 1. The geotaxis maze was fashioned from plexiglass and the maze chambers were hollowed out as semi-circular depressions in the slab, such that when the two slabs were bolted together a circular tube was formed in maze. This design thus made it possible to observe the entire time course of the assay. Additionally, this maze is easy to clean and standardize. For each strain, a geotaxis score was determined. In separate measurements, twenty to thirty flies of each strain were loaded into a starting tube on the left (see FIG. 1). The maze was set upright in front of a light source on the right, and, after turning on the light, each strain was scored according to the distribution of the flies in the nine collecting tubes on the right. A perfect score for positive geotaxis would be 1, for negative geotaxis, 9, and for an even distribution, 5. The geotaxis measurments were repeated 3-5 times for each strain (see Table 1). […]

For `OCCOCCN1CCN(C(c2ccccc2)c2ccc(Cl)cc2)CC1` (centres unmarked) [hydroxyzine], the “Effect on geotactic behavior (in words)” value (Canton-S flies fed with the histamine receptor antagonist) was “Extreme negative geotaxis is induced” and the Geotaxis score (wild-type Canton-S flies fed for 2 hr on 20 mg/ml hydroxyzine, score scale 1 = positive geotaxis, 5 = even distribution, 9 = negative geotaxis, N=1 (15-25 flies), untreated Canton-S 5.53) was 8.50.
